Test results: US8188284B2, “2-aminoquinolines” (Hoffman-La Roche Inc., priority 2008, dated 2012)

Target: T1, recombinant human 5-HT5A receptor (Homo sapiens, UniProt P47898)
T1 construct: expressed in transfected cells; host or cells: HEK-EBNA (Human Embryonic Kidney-EBNA) cells, transient cDNA expression, membranes
Test: [3H]LSD radioligand binding assay
Settings: [3H]LSD (approximately 1 nM), membranes from HEK-EBNA cells transiently expressing 5-HT5A receptors; Ki calculated from IC50 using the Cheng-Prussoff equation; read-out: Ki/nM 5-HT5A
Procedure: A [^3H]LSD radioligand binding assay was used to determine the affinity of the compounds for the recombinant human 5-HT5A receptor, in membranes from transiently (cDNA) expressed 5-HT5A receptors in Human Embryonic Kidney-EBNA (HEK-EBNA) cells. Assay buffer consisted of Tris (50 mM) buffer containing 1 mM EGTA, 10 mM MgCl2 (pH 7.4) and 10 μM pargyline. The binding assay was carried out in 96-well-plates in the presence of [^3H]LSD (approximately 1 nM), approximately 2 μg/well of membrane protein, and 0.5 mg of Ysi-poly-1-lysine SPA beads in a final volume of 200 μl of buffer. Non-specific binding was defined using methiothepin 2 μM. Compounds were tested at 10 concentrations. All assays were conducted in duplicate and repeated at least two times. Assay plates were incubated for 120 min at room temperature before centrifugation. Bound ligand was determined using a Packard Topcount scintillation counter. IC50 values were calculated using a non-linear curve fitting program and Ki values calculated using the Cheng-Prussoff equation.

T1 sequence (P47898 whole entry): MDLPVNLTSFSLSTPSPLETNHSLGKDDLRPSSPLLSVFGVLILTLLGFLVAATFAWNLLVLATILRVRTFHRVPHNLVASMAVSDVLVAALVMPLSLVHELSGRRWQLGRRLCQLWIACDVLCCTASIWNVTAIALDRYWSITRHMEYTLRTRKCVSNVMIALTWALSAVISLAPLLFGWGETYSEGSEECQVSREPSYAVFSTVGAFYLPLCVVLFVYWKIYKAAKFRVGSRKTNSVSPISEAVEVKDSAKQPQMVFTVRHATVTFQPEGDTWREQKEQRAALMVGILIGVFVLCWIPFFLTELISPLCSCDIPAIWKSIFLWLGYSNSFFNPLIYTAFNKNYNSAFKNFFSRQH

Row | SMILES | Ki
1 | Fc1ccc2c(c1)CCC2Nc1ccc2cc(Nc3cccc(C(F)(F)F)n3)ccc2n1 (racemic) [Example 102, rac-N^2-(5-Fluoro-indan-1-yl)-N^6-(6-trifluoromethyl-pyridin-2-yl)-quinoline-2,6-diamine] | 19.1 nM
2 | O=C(Nc1ccnc(Cl)c1)Nc1ccc2nc(N[C@@H]3CCc4ccccc43)ccc2c1 [Example 33, 1-(2-Chloro-pyridin-4-yl)-3-[2-((R)-indan-1-ylamino)-quinolin-6-yl]-urea] | 18.2 nM
3 | c1ccc2c(c1)CC[C@H]2Nc1ccc2cc(NCCCn3ccnc3)ccc2n1 [Example 9, N^6-(3-Imidazol-1-yl-propyl)-N^2—(R)-indan-1-yl-quinoline-2,6-diamine] | 176 nM
4 | CN(c1ccc(F)cc1)S(=O)(=O)Nc1ccc2nc(N[C@@H]3CCc4ccccc43)ccc2c1 [Example 41, N′-{2-[(1R)-2,3-dihydro-1H-inden-1-ylamino]quinolin-6-yl}-N-(4-fluorophenyl)-N-methylsulfamide] | 25.8 nM
5 | c1ccc2c(c1)CC[C@H]2Nc1ccc2cc(-n3ccnc3)ccc2n1 [Example 61, (6-Imidazol-1-yl-quinolin-2-yl)-(R)-indan-1-yl-amine] | 422 nM
6 | FC(F)(F)c1cccc(Nc2ccc3nc(N[C@@H]4CCc5ccccc54)ccc3c2)n1 [Example 80, N^2—(R)-Indan-1-yl-N^6-(6-trifluoromethyl-pyridin-2-yl)-quinoline-2,6-diamine] | 24.1 nM
7 | c1ccc2c(c1)CC[C@H]2Nc1ccc2cc(NCc3ncc[nH]3)ccc2n1 [Example 12, N^6-(1H-Imidazol-2-ylmethyl)-N^2—(R)-indan-1-yl-quinoline-2,6-diamine] | 16.6 nM
8 | COc1cccc(NC(=O)Nc2ccc3nc(N[C@@H]4CCc5ccccc54)ccc3c2)c1 [Example 22, 1-[2-((R)-Indan-1-ylamino)-quinolin-6-yl]-3-(3-methoxy-phenyl)-urea] | 21.9 nM
9 | Cn1nccc1NC(=O)Nc1ccc2nc(N[C@@H]3CCc4ccccc43)ccc2c1 [Example 58, 1-[2-((R)-Indan-1-ylamino)-quinolin-6-yl]-3-(2-methyl-2H-pyrazol-3-yl)-urea] | 20.3 nM
10 | CN(c1ccc2nc(N[C@@H]3CCc4ccccc43)ccc2c1)c1ccccn1 [Example 85, N^2—(R)-Indan-1-yl-N^6-methyl-N^6-pyridin-2-yl-quinoline-2,6-diamine] | 225 nM

More lines, in order of falling Ki, values ahead:

Row | Ki | SMILES
11 | 16.5 nM | COc1ccc(CNC(=O)Nc2ccc3nc(N[C@@H]4CCc5ccccc54)ccc3c2)cc1 [Example 29, 1-[2-((R)-Indan-1-ylamino)-quinolin-6-yl]-3-(4-methoxy-benzyl)-urea]
12 | 15 nM | COc1cccc2c1C(Nc1ccc3cc(NC(=O)Cc4ccncc4)ccc3n1)CC2 (racemic) [Example 115, rac-N-[2-(7-Methoxy-indan-1-ylamino)-quinolin-6-yl]-2-pyridin-4-yl-acetamide]
13 | 9.8 nM | c1cncc(CNc2ccc3nc(N[C@@H]4CCc5ccccc54)ccc3c2)c1 [Example 4, N^2—(R)-Indan-1-yl-N^6-pyridin-3-ylmethyl-quinoline-2,6-diamine]
14 | 9 nM | c1ccc2c(c1)CC[C@H]2Nc1ccc2cc(NCc3cc[nH]n3)ccc2n1 [Example 18, N^2—(R)-Indan-1-yl-N^6-(1-H-pyrazol-3-ylmethyl)-quinoline-2,6-diamine]
15 | 7.8 nM | O=C(Nc1cccc(F)c1)Nc1ccc2nc(N[C@@H]3CCc4ccccc43)ccc2c1 [Example 20, 1-(3-Fluoro-phenyl)-3-[2-((R)-indan-1-ylamino)-quinolin-6-yl]-urea]
16 | 6.3 nM | COc1ccc(NC(=O)Nc2ccc3nc(N[C@@H]4CCc5ccccc54)ccc3c2)cc1 [Example 21, 1-[2-((R)-Indan-1-ylamino)-quinolin-6-yl]-3-(4-methoxy-phenyl)-urea]
17 | 4.9 nM | O=C(Nc1ccccc1)Nc1ccc2nc(N[C@@H]3CCc4ccccc43)ccc2c1 [Example 16, 1-[2-((R)-Indan-1-ylamino)-quinolin-6-yl]-3-phenyl-urea]
